Laboratory results from patent publication US5593970A, “Heterocyclic anthracycline analogs” (priority 1994, dated 1997).

Columns and labels:
Ovarian = experiment: NCI assay, average per cancer type; details: for CC50 / GI50: Homo sapiens; for CC50: 48 h, read-out: Average LOG10 LC50; for GI50: read-out: Average LOG10 GI50
SKOV3 = experiment: Microculture tetrazolium assay; type: cell-based; details: Homo sapiens, SK-OV-3, SKOV3; read-out: IC50
NSC Lung = experiment: NCI assay, average per cancer type; details: for CC50 / GI50: Homo sapiens; for CC50: 48 h, read-out: Average LOG10 LC50; for GI50: read-out: Average LOG10 GI50
P388 = experiment: Soft agar colony formation disk diffusion assay; type: cell-based, murine
Procedure, shortened: (§1)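 Cells from solid tumours or ascitic fluid (murine lines maintained in vivo, assayed in vitro) were suspended in 0.4% Noble agar over a 0.8% agar base. Compound dissolved in DMSO was applied on a 6.5 mm paper disk. After 10-20 days at 37° C., the inhibition zone from disk edge to nearest colony was measured microscopically.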

LL = experiment: Soft agar colony formation disk diffusion assay; type: cell-based, murine
Procedure, shortened: as §1

P388/ADR = experiment: Soft agar colony formation disk diffusion assay; type: cell-based, murine
Procedure, shortened: as §1

B16 = experiment: Soft agar colony formation disk diffusion assay; type: cell-based, murine
Procedure, shortened: as §1

M5076 = experiment: Soft agar colony formation disk diffusion assay; type: cell-based, murine
Procedure, shortened: as §1

Renal = experiment: NCI assay, average per cancer type; details: for CC50 / GI50: Homo sapiens; for CC50: 48 h, read-out: Average LOG10 LC50; for GI50: read-out: Average LOG10 GI50
T47D = experiment: Microculture tetrazolium assay; type: cell-based; details: Homo sapiens, read-out: IC50
HT29 = experiment: Microculture tetrazolium assay; type: cell-based; details: Homo sapiens, HT-29, HT29; read-out: IC50
LOX = experiment: Microculture tetrazolium assay; type: cell-based; details: read-out: IC50
tumor cell lines = experiment: NCI sulforhodamine B assay, all cell lines; details: for CC50 / IC100 / GI50: Homo sapiens; for CC50 / IC100: 48 h; for CC50: read-out: Log10 LC50, Mean / MG-MID, all cell lines (converted); for IC100: read-out: Log10 TGI, Mean / MG-MID, all cell lines; for GI50: read-out: Log10 GI50, Mean / MG-MID, all cell lines (converted)
MATB/ADR = experiment: Soft agar colony formation disk diffusion assay; type: cell-based, rat
Procedure, shortened: as §1

MATB.WT = experiment: Soft agar colony formation disk diffusion assay; type: cell-based, rat
Procedure, shortened: as §1

| Compound | CC50 (Ovarian) | GI50 (Ovarian) | IC50 (SKOV3) | CC50 (NSC Lung) | zone of inhibition (P388; 10 μg/DISK) | zone of inhibition (P388; 100 μg/DISK) | zone of inhibition (LL; 100 μg/DISK) | zone of inhibition (P388/ADR; 10 μg/DISK) | zone of inhibition (P388/ADR; 100 μg/DISK) | zone of inhibition (B16; 10 μg/DISK) | zone of inhibition (B16; 100 μg/DISK) | zone of inhibition (M5076; 10 μg/DISK) | zone of inhibition (M5076; 100 μg/DISK) | IC50 (T47D) | IC50 (HT29) | IC50 (LOX) | zone of inhibition (MATB/ADR; 10 μg/DISK) | zone of inhibition (MATB/ADR; 100 μg/DISK) | zone of inhibition (MATB.WT; 10 μg/DISK) | zone of inhibition (MATB.WT; 100 μg/DISK) | other results |
| --- | --- | --- | --- | --- | --- | --- | --- | --- | --- | --- | --- | --- | --- | --- | --- | --- | --- | --- | --- | --- | --- |
| CCOC(=O)[C@@H]1CC2=C(C(=O)c3c(c(O)c4ccccc4c3OC(C)=O)C2=O)[C@@H](O)O1 (mixture of isomers) [BCH-658, (1S,3S) and (1R,3R) Ethyl[11-acetoxy-1,6-dihydroxy-5,12-dioxo-3,4,5,12-tetrahydroanthraceno (2,3-c)pyran-3-yl]formate] | > 100 µM | > 100 µM | 11.2 µM | > 100 µM | 42.7 ± 17.2 Zone Units | 61.0 ± 0.0 Zone Units | 51.9 ± 21.5 Zone Units | 18.3 ± 8.6 Zone Units | 51.3 ± 20.7 Zone Units | 0 Zone Units | 0 Zone Units | 26.6 ± 13.6 Zone Units | 76.2 ± 21.5 Zone Units | > 100 µM | > 100 µM | 66.2 µM | 0 Zone Units | 0 Zone Units | 0 Zone Units | 0 Zone Units | GI50 (NSC Lung): > 100 µM; CC50 (Renal): > 100 µM; GI50 (Renal): 46.8 µM; CC50 (tumor cell lines): 100 µM; IC100 (tumor cell lines): 97.7 µM; GI50 (tumor cell lines): 70.8 µM |
| CCOC(=O)[C@@H]1CC2=C(C(=O)c3cc4ccccc4c(OC(C)=O)c3C2=O)[C@@H](O)O1 (mixture of isomers) [BCH-660, (1S,3S) and (1R,3R)-Ethyl-[6-acetoxy-1-hydroxy-5,12-dioxo-3,4,5,12-tetrahydroanthraceno (2,3-c)pyran-3-yl]formate] | 6.61 µM | 0.955 µM | 5.34 µM | 19.5 µM | 18.3 ± 8.6 Zone Units | 54.9 ± 0.0 Zone Units | 55.0 ± 8.4 Zone Units | 6.1 ± 8.6 Zone Units | 54.9 ± 8.6 Zone Units | 6.1 ± 8.6 Zone Units | 85.4 ± 8.6 Zone Units | 24.4 ± 8.6 Zone Units | 61.0 ± 0.0 Zone Units | 6.67 µM | 2.92 µM | 9.84 µM | 24.4 ± 8.6 Zone Units | 161.5 ± 30.4 Zone Units | 137.2 ± 21.5 Zone Units | 137.2 ± 21.5 Zone Units | GI50 (NSC Lung): 0.977 µM; CC50 (Renal): 7.94 µM; GI50 (Renal): 0.912 µM; antiproliferative and cytotoxic activity in words (tumor cell lines): strong antiproliferative (GI50) and potent cytotoxic (LC50) activities; CC50 (tumor cell lines): 21.4 µM; IC100 (tumor cell lines): 2.82 µM; GI50 (tumor cell lines): 0.813 µM |
| COC(=O)[C@H]1CC2=C(C(=O)c3c(cc4ccccc4c3O)C2=O)[C@H](O[C@H]2C[C@H](NC(=O)C(F)(F)F)[C@H](O)[C@H](C)O2)O1 (mixture of isomers) [BCH-692, (1'S,1S,3R) and (1'S,1R,3S) Methyl[11-hydroxy-1-(2',3',6'-trideoxy-3'-trifluoroacetamido-4'-hydroxy-L-lyxohexopyranose)-5,12-dioxo-3,4,5,12-tetrahydro-anthraceno[2,3-c]pyran-3-yl]formate] |  |  | 2.84 µM |  | 50.5 ± 10.9 Zone Units | 180.0 ± 50.6 Zone Units | 140.3 ± 40.5 Zone Units | 25.0 ± 10.0 Zone Units | 150.5 ± 50.0 Zone Units | 0 Zone Units | 200.0 ± 55.0 Zone Units | 50.0 ± 25.5 Zone Units | 200.0 ± 100.0 Zone Units | 71 µM | 2.18 µM | 3.89 µM | 0 Zone Units | 180.0 ± 50.5 Zone Units | 150.0 ± 18.5 Zone Units | 400.5 ± 100.0 Zone Units | zone of inhibition (LL; 10 μg/DISK): 80.5 ± 20.5 Zone Units |
| CCOC(=O)C1CC2=C(CO1)C(=O)c1cc3ccccc3c(O)c1C2=O (stereo not shown) [BCH-653, Ethyl(6 and 11 hydroxy-5,12-dioxo-3,4,5,12-tetrahydro-anthraceno[2,3-c]pyran-3-yl)]formate] | > 100 µM | 38 µM |  | > 100 µM |  | 64.0 ± 4.2 Zone Units | 18.3 ± 0.0 Zone Units |  | 66.8 ± 8.2 Zone Units |  | 0 Zone Units |  | 85.4 ± 25.8 Zone Units |  |  |  |  | 0 Zone Units |  | 0 Zone Units | GI50 (NSC Lung): 44.7 µM; CC50 (Renal): > 100 µM; GI50 (Renal): 57.5 µM; CC50 (tumor cell lines): 100 µM; IC100 (tumor cell lines): 100 µM; GI50 (tumor cell lines): 42.7 µM |
| CCOC(=O)C1CC2=C(CO1)C(=O)c1c(c(O)c3ccccc3c1OC(C)=O)C2=O (stereo not shown) [BCH-654, Ethyl[11-acetoxy-6-hydroxy-5,12-dioxo-3,4,5,12-tetrahydroanthraceno(2,3-c)pyran-3-yl]formate] |  |  | 98.4 µM |  | 0 Zone Units | 0 Zone Units | 0 Zone Units | 0 Zone Units | 0 Zone Units | 0 Zone Units | 137.4 ± 21.8 Zone Units | 0 Zone Units | 0 Zone Units | > 100 µM | 47.3 µM | 70.5 µM | 0 Zone Units | 134.3 ± 17.3 Zone Units | 0 Zone Units | 152.5 ± 25.8 Zone Units |  |
| COC(=O)[C@@H]1CC2=C(C(=O)c3c(cc4ccccc4c3O)C2=O)[C@@H](O[C@H]2C[C@H](NC(=O)C(F)(F)F)[C@H](O)[C@H](C)O2)O1 [BCH-691, (1'S,1R,3S)-Methyl-{11-hydroxy-1-(2',3',6'-trideoxy-3'-trifluoroacetamido-4'-hydroxy-L-lyxoheoxpyranose)-5,12-dioxo-3,4,5,12-tetrahydroanthraceno[2,3-c]pyran-3-yl}formate] |  |  | 1.27 µM |  | 100.5 ± 50.0 Zone Units | 200.2 ± 50.0 Zone Units | 180.0 ± 120.0 Zone Units | 50.0 ± 10.0 Zone Units | 98.0 ± 15.0 Zone Units | 114.0 ± 30.2 Zone Units | 250.0 ± 58.0 Zone Units | 120.0 ± 28.8 Zone Units | 220.0 ± 50.8 Zone Units | 2.25 µM | 0.301 µM | 1.37 µM | 0 Zone Units | 200.0 ± 95.0 Zone Units | 120.0 ± 50.5 Zone Units | 380.0 ± 120.0 Zone Units | zone of inhibition (LL; 10 μg/DISK): 50.6 ± 25.5 Zone Units |
| Methyl(11-hydroxy-5,12-dioxo-3,4,5,12-tetrahydroanthraceno[2,3-c]pyran-3-yl)ketone and Methyl(5-hydroxy-5,12-dioxo-3,4,5,12-tetrahydroanthraceno[2,3-c]pyran-3-yl)ketone [BCH-687] |  |  |  |  | 81.3 ± 30.0 Zone Units | 183.0 ± 81.0 Zone Units | 182.6 ± 35.2 Zone Units | 0 Zone Units | 153.6 ± 30.6 Zone Units | 34.6 ± 3.6 Zone Units | 70.1 ± 13.0 Zone Units | 0 Zone Units | 410.8 ± 46.5 Zone Units |  |  |  | 69.1 ± 7.0 Zone Units | 101.6 ± 35.2 Zone Units | 42.7 ± 6.1 Zone Units | 97.6 ± 20.0 Zone Units | Average LOG10 GI50 (Ovarian; Ovarian): -4.94 ± 0.37 log molar; Average LOG10 GI50 (NSC Lung; NSC Lung): -4.81 ± 0.35 log molar; zone of inhibition (LL; 10 μg/DISK): 62.8 ± 30.7 Zone Units; Average LOG10 GI50 (Renal; Renal): -4.69 ± 0.23 log molar; antiproliferative and cytotoxic activity in words (tumor cell lines): significant antiproliferative (GI50) and cytotoxic (LC50) activities in solid tumors; Log10 GI50, Mean / MG-MID (tumor cell lines; all cell lines): -4.85 log molar; Log10 TGI, Mean / MG-MID (tumor cell lines; all cell lines): -4.37 log molar |
